US20250283056A1, “MODIFIED O-[…] USEFUL FOR PRODUCTION OF O-METHYLATED PHENOLIC NATURAL PRODUCTS” (The University of Hong Kong, priority 2024, published 2025)
Read-outs that look alike come from different tables or passages of the source.

Legend:
SbSOMT [1] = biological target: T1, SbSOMT (Sorghum bicolor, UniProt A0A1B6PFV1); assay: In vitro OMT enzyme assay, recombinant SbSOMT; type: biochemical
Experimental: (§1) To screen for OMT activities, purified stilbene products of enzyme assays were separated by a Synergi C18 column (Synergi 4μ Fusion RP 80 Å, 50×2 mm, Phenomenex, USA) under a flow rate of 0.5 ml min-1 over a 6 min linear gradient of 10%-90% B (described below). […] Meanwhile, purified phenylpropanoid products of enzyme assays were separated on the same column connected to a HP1100 series HPLC system (Agilent Technologies, USA) linked to an AP3200-QTRAP mass spectrometer (AB Sciex, China) operating under the multiple-reaction-monitoring (MRM) mode. To quantify these products, assay products were separated on a Kinetex C18 column (Kinetex 2.6 μm C18 100 Å, 100×2.1 mm, Phenomenex, USA) connected to a HP1100 series HPLC system (Agilent Technologies, USA) linked to an AP3200-QTRAP mass spectrometer (AB Sciex, China) operating under the multiple-reaction-monitoring (MRM) mode. A linear gradient of 10%-90% B under a flow rate of 0.3 ml min-1 over 6 min was used to further enhance sensitivity. Total metabolites from all plant tissues were separated by the same Kinetex C18 column connected to the X500R QTOF-HRMS system. A linear gradient under a flow rate of 0.3 ml min-1 over a 20 min linear gradient of 10%-90% B was used.
(§2) Reaction products were extracted twice with ethyl acetate. […] All reactions were done in triplicates.

SsCOMT [2] = assay: In vitro OMT enzyme assay, recombinant SsCOMT; type: biochemical, Saccharum spontaneum; details: two-hour incubation with 100 μM substrate
Experimental: as §1, §2

SbCOMT [3] = biological target: T2, SbCOMT (Sorghum bicolor, UniProt Q84X55); assay: In vitro OMT enzyme assay, recombinant SbCOMT; type: biochemical
Experimental: as §1, §2

SbCOMT [4] = biological target: T2, SbCOMT; assay: Isothermal titration calorimetry (ITC), SbCOMT wild type; type: binding
Experimental: (§3) Isothermal titration calorimetry (ITC) assays were conducted with MicroCal iTC200 (Malvern Panalytical, UK). […] Both cell sample and titrant were equilibrated to ITC buffer consisting of 100 mM HEPES pH 7.9 with 2.5% (v/v) PEG 400. For ITC assays involving pterostilbene, PEG 400 concentration was increased to 5% (v/v). Each run incorporated an initial delay of 60 s prior to the first injection (0.5 μl) and spaced 150 s between the subsequent 19 injections (2.0 μl) at 25° C. During the runs, the cell was continuously stirred at 750 rpm by flat paddle. Results were analysed based on the 2nd to 20th injections using the Origin (MicroCal Software, USA) and PEAQ-ITC software (Malvern Panalytical, UK).

SbSOMT E310A = SbSOMT E310A (Sorghum bicolor, UniProt A0A1B6PFV1, E310A); assay: biochemical; type: binding; details: for Stoichiometry, N: ITC
Experimental: (§4) Desired mutations of SbSOMT were introduced into its construct using specific primers (Table 11). Expression constructs were transformed into Rosetta™ (DE3) competent Escherichia coli cells (Novagen, Germany). Protein expression was induced with 0.1 mM Isopropyl-β-thiogalactopyranoside (IPTG) overnight at 16° C. E. coli cells were harvested, resuspended in lysis buffer (20 mM Tris buffer pH 7.9, 300 mM NaCl, 2.5 mM β-mercaptoethanol), and lysed by sonication. Crude proteins were loaded onto a HisTrap HP column (Cytiva, USA) connected to a AKTA pure chromatography system (Cytiva, USA). Column was washed with 15 column volumes of lysis buffer with 50 mM imidazole. Proteins were eluted over a gradient of 50-500 mM imidazole. Eluate fractions with the target OMT were pooled, digested with TEV protease, and simultaneously dialyzed against a low salt buffer (20 mM Tris pH 7.9, 50 mM NaCl, 2.5 mM β-mercaptoethanol) overnight at 4° C. The dialyzed sample was filtered and flowed through HisTrap to remove His-tagged components. The flowthrough was then loaded to HiTrap Q FF columns (Cytiva, USA) over a gradient of 50-1000 mM NaCl. Polishing was achieved via size-exclusion chromatography using the storage buffer (100 mM HEPES pH 7.9, 100 mM NaCl) as mobile phase. SsSTS was purified under the same conditions except that the pH was adjusted to 7.0 for all buffers. Proteins were concentrated by ultrafiltration and flash frozen for storage at −80° C.
as §3

SsCOMT [5] = assay: Isothermal titration calorimetry (ITC), SsCOMT wild type; type: binding, Saccharum spontaneum; details: 25° C., SsCOMT WT, mean ± standard error from curve fitting
Experimental: as §3

SbSOMT [6] = biological target: T1, SbSOMT; assay: Isothermal titration calorimetry (ITC), SbSOMT wild type; type: binding
Experimental: as §3

SbCOMT [7] = biological target: T2, SbCOMT; assay: Enzyme kinetics of SbCOMT; type: biochemical; details: pinostilbene as substrate
Source text: as §2

SbSOMT [8] = biological target: T1, SbSOMT; assay: Enzyme kinetics of SbSOMT; type: biochemical; details: pinostilbene as substrate
Source text: as §2

SbOMT4 = assay: In vitro OMT enzyme assay, recombinant SbOMT4; type: biochemical, Sorghum bicolor
Experimental: as §1, §2

SbSOMT H282A = assay: Catalytic assay, SbSOMT H282A mutant protein; type: biochemical, Sorghum bicolor; details: one-hour incubation
Source text: (§5) Data are expressed as yields relative to that of wild-type SbSOMT protein (WT). […] Data are expressed as yields relative to that of wild-type SbSOMT protein (WT). Values refer to means±SD (n=3). Asterisks indicate significant differences between mutant protein and WT (Student's t-test, ***: p<0.001). Tricin was used as an internal standard for quantitation. […] Dots represent individual data points.
(§6) Desired mutations of SbSOMT were introduced into its construct using specific primers (Table 11). Expression constructs were transformed into Rosetta™ (DE3) competent Escherichia coli cells (Novagen, Germany). Protein expression was induced with 0.1 mM Isopropyl-β-thiogalactopyranoside (IPTG) overnight at 16° C. E. coli cells were harvested, resuspended in lysis buffer (20 mM Tris buffer pH 7.9, 300 mM NaCl, 2.5 mM β-mercaptoethanol), and lysed by sonication. […]
(§7) For initial screening of OMT activities, purified OMT enzymes (10 μg) were incubated in 100 mM HEPES buffer (pH 7.9), 200 μM S-adenosyl-L-methionine (SAM) and 100 μM of phenylpropanoid or stilbene substrates (final volume 200 μl) at 30° C. for 2 h. Enzyme kinetics were determined by incubating 1 μg protein with 100 mM HEPES buffer (pH 7.9), 300 μM SAM, and stilbene concentrations ranging from 5 to 200 μM at 30° C. for 5 min. […]

SbSOMT H282N/D283A = SbSOMT H282N/D283A (Sorghum bicolor, UniProt A0A1B6PFV1, D283A/H282N); assay: biochemical
Experimental: as §4, §3

SbSOMT D283A [9] = biological target: T3, SbSOMT D283A (Sorghum bicolor, UniProt A0A1B6PFV1, D283A); assay: biochemical
Experimental: as §4, §3

SbSOMT E342A [10] = biological target: T4, SbSOMT E342A (Sorghum bicolor, UniProt A0A1B6PFV1, E342A); assay: biochemical
Experimental: as §4, §3

SbSOMT I144N = SbSOMT I144N (Sorghum bicolor, UniProt A0A1B6PFV1, I144N); assay: biochemical
Experimental: as §4, §3

SbSOMT D283A [11] = biological target: T3, SbSOMT D283A; details: SbSOMT D283A incubated with resveratrol, one hour
Source text: as §5, §6, §7

SbSOMT E342A [12] = biological target: T4, SbSOMT E342A; details: SbSOMT E342A incubated with resveratrol, one hour
Source text: as §5, §6, §7

SbSOMT F337N [13] = assay: Catalytic assay, SbSOMT F337N mutant protein; type: biochemical, Sorghum bicolor; details: SbSOMT F337N vs WT, resveratrol, one-hour incubation
Source text: as §5, §6, §7

SbSOMT I144N/F337N [14] = assay: Catalytic assay, SbSOMT I144N/F337N mutant protein; type: biochemical, Sorghum bicolor; details: resveratrol, one-hour incubation
Source text: as §5, §6, §7

SbSOMT F337N [15] = assay: ITC, SbSOMT F337N mutant protein; type: binding, Sorghum bicolor
Experimental: as §4, with “Polishing was achieved via size-exclusion chromatography using the storage buffer (100 mM HEPES pH 7.9, 100 mM NaCl) as mobile phase. SsSTS was purified under the same conditions except that the pH was adjusted to 7.0 for all buffers. Proteins were concentrated by ultrafiltration and flash frozen for storage at −80° C.” left out
(§8) Isothermal titration calorimetry (ITC) assays were conducted with MicroCal iTC200 (Malvern Panalytical, UK). […] Results were analysed based on the 2nd to 20th injections using the Origin (MicroCal Software, USA) and PEAQ-ITC software (Malvern Panalytical, UK).

SbSOMT I144N/F337N [16] = assay: ITC, SbSOMT I144N/F337N mutant protein; type: binding, Sorghum bicolor
Experimental: as §4, with “Polishing was achieved via size-exclusion chromatography using the storage buffer (100 mM HEPES pH 7.9, 100 mM NaCl) as mobile phase. SsSTS was purified under the same conditions except that the pH was adjusted to 7.0 for all buffers. Proteins were concentrated by ultrafiltration and flash frozen for storage at −80° C.” left out
as §8

[17] = two-hour incubation with 100 μM substrate
[18] = 300 μM SAM, 30° C., 5 min, mean ± SD (n = 3)
[19] = ITC, 25° C., SbCOMT WT, mean ± standard error from curve fitting, read-out: Kd
[20] = two-hour incubation with 100 μM resveratrol

COc1cc(/C=C/C(=O)O)cc(O)c1O [5-hydroxyferulic acid]
O-methylation of hydroxycinnamic acids (SbSOMT [1]; [17]): failed to methylate
formation of O-methylated product (SsCOMT [2]): generated
O-methylation of hydroxycinnamic acids to ferulic acid / sinapic acid (SbCOMT [3]; [17]): efficiently converted

Oc1cc(O)cc(/C=C/c2ccc(O)c(O)c2)c1 [Piceatannol, piceatannol]
conversion of piceatannol into isorhapontigenin (3′-O-methylation in the B-ring) (SbCOMT [3]; two-hour reaction with 100 μM piceatannol): ca. 60%
Kd (SbCOMT [4]): 1.26 µM

COc1cc(O)cc(/C=C/c2ccc(O)cc2)c1 [Pinostilbene, pinostilbene]
Stoichiometry, N (SbSOMT E310A; SbSOMT mutant E310A): 0.59 ± 0.01
Kd (SbSOMT E310A; SbSOMT mutant E310A, ± SE, read-out: Kd): 3.91 ± 0.33 µM
Kd (SsCOMT [5]): 5.57 ± 0.77 µM
Kd (SbSOMT [6]; ITC, 25° C., SbSOMT WT, mean ± standard error from curve fitting, read-out: Kd): 2.86 µM
Specific activity (SbCOMT [7]): 3.46 ± 0.27 nmol/min/mg
kcat (SbCOMT [7]): 0.00233 ± 0.00017 s⁻¹
Km (SbCOMT [7]; [18]): 3.14 ± 1.4 µM
Specific activity (SbSOMT [8]): 290.04 ± 5.64 nmol/min/mg
kcat (SbSOMT [8]): 0.1717 ± 0.00333 s⁻¹
Km (SbSOMT [8]; [18]): 4.62 ± 0.46 µM
Kd (SbCOMT [4]; [19]): 1.79 µM

COc1cc(/C=C/c2ccc(O)cc2)cc(OC)c1 [Pterostilbene, pterostilbene]
Kd (SbSOMT E310A): 6.04 ± 2.08 µM
Kd (SbCOMT [4]; [19]): 3.99 µM

Oc1ccc(C=Cc2cc(O)cc(O)c2)cc1 [Resveratrol, resveratrol]
conversion of resveratrol into pterostilbene (SbSOMT [1]; [20]): about 60%
formation of O-methylated product (SsCOMT [2]): only small amounts of pinostilbene were generated
SOMT activities with resveratrol as substrate (SbOMT4): minimal SOMT activities
catalytic activity with resveratrol (SbSOMT H282A): catalytically defective
Kd (SbSOMT H282N/D283A): 32.9 µM
Stoichiometry, N (SbSOMT H282N/D283A; SbSOMT mutant H282N/D283A, ITC): 0.61 ± 0.17
Kd (SbSOMT D283A [9]): 1.31 µM
Stoichiometry, N (SbSOMT D283A [9]; SbSOMT mutant D283A, ITC): 0.58 ± 0.01
Kd (SbSOMT E342A [10]): 11.1 ± 0.75 µM
Stoichiometry, N (SbSOMT E342A [10]; SbSOMT mutant E342A, ITC): 0.75 ± 0.01
Kd (SbSOMT I144N): 152 ± 31.1 µM
Kd (SbSOMT I144N; SbSOMT mutant I144N, N fixed at 0.6 to estimate the Kd, ± SE): significantly weakened binding
Kd (SbSOMT E310A): 18.5 ± 2.58 µM
Stoichiometry, N (SbSOMT E310A; SbSOMT mutant E310A): 0.36 ± 0.04
Kd (SsCOMT [5]): 2.78 ± 0.33 µM
pterostilbene formation (SbSOMT D283A [11]): failed to generate pterostilbene
pterostilbene formation (SbSOMT E342A [12]): failed to generate pterostilbene
less pterostilbene produced compared to WT (SbSOMT F337N [13]): 97.7%
more pinostilbene accumulated compared to WT (SbSOMT F337N [13]): 50.8%
SOMT activities (SbSOMT I144N/F337N [14]): complete abolishment of SOMT activities
Kd (SbSOMT F337N [15]): No binding
Kd (SbSOMT F337N [15]; listed as resveratrol): undetectable binding affinities
Kd (SbSOMT [6]): 4.69 µM
resveratrol 3,5-bis-O-methylation activities (SbCOMT [3]; [20]): poor resveratrol 3,5-bis-O-methylation activities
Kd (SbSOMT I144N/F337N [16]): No binding
Kd (SbSOMT I144N/F337N [16]; listed as resveratrol): undetectable binding affinities
Kd (SbCOMT [4]): 1.55 µM
